# Columns and labels:
# [1] = biological target: T1, Alpha-1A adrenergic receptor (Homo sapiens, UniProt P35348); format: functional, cell-based
# T1 sequence (P35348 whole entry): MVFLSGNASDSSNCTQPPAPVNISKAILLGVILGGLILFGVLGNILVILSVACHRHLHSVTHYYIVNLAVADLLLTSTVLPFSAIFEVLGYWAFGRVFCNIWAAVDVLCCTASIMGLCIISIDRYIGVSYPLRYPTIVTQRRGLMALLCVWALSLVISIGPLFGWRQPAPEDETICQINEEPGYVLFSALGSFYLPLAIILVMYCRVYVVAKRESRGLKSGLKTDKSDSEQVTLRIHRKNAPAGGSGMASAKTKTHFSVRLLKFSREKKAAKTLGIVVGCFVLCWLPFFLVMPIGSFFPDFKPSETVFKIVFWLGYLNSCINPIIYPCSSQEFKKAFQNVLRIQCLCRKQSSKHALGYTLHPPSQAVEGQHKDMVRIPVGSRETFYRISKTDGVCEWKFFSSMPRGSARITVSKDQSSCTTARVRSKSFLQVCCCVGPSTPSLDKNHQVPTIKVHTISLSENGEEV
# Adenosine receptor A2a = Adenosine receptor A2a (Homo sapiens, UniProt P29274)
# [2] = biological target: Beta-1 adrenergic receptor (Homo sapiens, UniProt P08588); format: functional
# [3] = biological target: T2, Type-1 angiotensin II receptor (Homo sapiens, UniProt P30556)
# T2 sequence (P30556 whole entry): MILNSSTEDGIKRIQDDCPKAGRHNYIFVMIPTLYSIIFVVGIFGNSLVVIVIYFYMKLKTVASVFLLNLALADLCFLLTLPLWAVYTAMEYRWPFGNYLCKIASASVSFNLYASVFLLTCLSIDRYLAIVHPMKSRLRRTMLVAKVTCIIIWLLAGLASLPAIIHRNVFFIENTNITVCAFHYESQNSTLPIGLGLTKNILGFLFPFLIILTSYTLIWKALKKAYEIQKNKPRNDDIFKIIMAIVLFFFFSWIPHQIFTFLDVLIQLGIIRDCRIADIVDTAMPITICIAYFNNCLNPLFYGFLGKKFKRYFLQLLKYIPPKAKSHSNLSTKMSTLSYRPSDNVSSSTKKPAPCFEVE
# [4] = biological target: T3, Cholecystokinin receptor type A (Homo sapiens, UniProt P32238)
# T3 sequence (P32238 whole entry): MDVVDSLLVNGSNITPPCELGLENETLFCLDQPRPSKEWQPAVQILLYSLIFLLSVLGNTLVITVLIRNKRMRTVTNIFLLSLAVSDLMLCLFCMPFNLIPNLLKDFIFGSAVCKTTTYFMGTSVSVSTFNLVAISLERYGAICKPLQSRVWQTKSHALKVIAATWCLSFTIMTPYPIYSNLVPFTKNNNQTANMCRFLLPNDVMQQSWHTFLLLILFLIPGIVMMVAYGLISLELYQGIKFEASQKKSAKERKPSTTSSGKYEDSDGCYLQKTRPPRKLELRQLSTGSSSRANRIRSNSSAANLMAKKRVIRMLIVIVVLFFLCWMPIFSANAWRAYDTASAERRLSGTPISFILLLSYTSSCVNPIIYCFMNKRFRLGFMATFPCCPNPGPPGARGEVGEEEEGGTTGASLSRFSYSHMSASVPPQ
# [5] = biological target: T4, Gastrin/cholecystokinin type B receptor (Homo sapiens, UniProt P32239)
# T4 sequence (P32239 whole entry): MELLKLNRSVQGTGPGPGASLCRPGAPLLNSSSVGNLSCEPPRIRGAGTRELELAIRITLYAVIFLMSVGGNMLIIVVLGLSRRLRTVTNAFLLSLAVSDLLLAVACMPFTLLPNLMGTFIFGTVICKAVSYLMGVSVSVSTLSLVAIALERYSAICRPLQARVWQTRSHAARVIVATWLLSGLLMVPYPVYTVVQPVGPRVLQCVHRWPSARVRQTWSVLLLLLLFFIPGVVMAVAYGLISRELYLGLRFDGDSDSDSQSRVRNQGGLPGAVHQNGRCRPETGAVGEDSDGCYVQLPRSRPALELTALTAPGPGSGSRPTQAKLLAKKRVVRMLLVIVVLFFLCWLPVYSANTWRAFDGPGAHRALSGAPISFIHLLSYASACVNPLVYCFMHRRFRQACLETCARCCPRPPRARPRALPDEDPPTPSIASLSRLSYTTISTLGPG
# Also: assay procedure not described here.
# Chain of Adenosine receptor A2a (P29274 whole entry): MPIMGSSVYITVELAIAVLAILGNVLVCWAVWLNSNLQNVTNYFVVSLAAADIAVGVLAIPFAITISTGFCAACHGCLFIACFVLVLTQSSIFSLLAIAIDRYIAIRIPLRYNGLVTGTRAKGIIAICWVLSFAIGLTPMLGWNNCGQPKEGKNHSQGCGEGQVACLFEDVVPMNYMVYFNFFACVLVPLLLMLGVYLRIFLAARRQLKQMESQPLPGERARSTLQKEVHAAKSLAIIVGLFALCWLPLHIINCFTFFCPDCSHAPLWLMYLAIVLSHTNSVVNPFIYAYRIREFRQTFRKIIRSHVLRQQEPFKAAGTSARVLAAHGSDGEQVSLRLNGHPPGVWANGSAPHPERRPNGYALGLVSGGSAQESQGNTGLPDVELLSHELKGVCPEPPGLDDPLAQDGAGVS
# Chain of Beta-1 adrenergic receptor (P08588 whole entry): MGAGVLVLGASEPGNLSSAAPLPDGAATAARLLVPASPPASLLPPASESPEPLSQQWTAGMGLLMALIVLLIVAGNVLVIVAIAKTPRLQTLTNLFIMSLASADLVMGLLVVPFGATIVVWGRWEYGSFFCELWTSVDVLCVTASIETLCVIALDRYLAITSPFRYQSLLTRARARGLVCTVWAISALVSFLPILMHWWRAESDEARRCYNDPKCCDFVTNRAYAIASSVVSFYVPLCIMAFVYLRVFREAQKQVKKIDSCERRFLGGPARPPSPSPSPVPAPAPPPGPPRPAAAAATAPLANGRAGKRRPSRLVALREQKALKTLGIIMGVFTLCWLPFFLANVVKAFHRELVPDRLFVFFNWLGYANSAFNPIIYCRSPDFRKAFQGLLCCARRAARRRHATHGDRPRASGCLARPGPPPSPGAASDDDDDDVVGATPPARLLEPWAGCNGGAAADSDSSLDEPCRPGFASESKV
SMILES,AC50 [1] [µM],AC50 (Adenosine receptor A2a) [µM],AC50 [2] [µM],AC50 [3] [µM],AC50 [4] [µM],AC50 [5] [µM]
CC[C@@H]1C[C@]1(NC(=O)[C@@H]1C[C@@H]2CN1C(=O)[C@H](C(C)(C)C)NC(=O)OCC(C)(C)CCCCc1cccc3c1CN(C3)C(=O)O2)C(=O)NS(=O)(=O)C1CC1,> 3,–,–,–,–,–
CCOc1cc([C@@H](CS(C)(=O)=O)N2C(=O)c3cccc(NC(C)=O)c3C2=O)ccc1OC,–,> 30,> 30,> 30,> 30,–
CC(=O)NO [ACETOHYDROXAMIC ACID],> 30,–,–,–,–,–
CC(=O)Nc1ccc(CC(=O)O)cc1 [ACTARIT],–,> 30,> 30,> 30,> 30,> 30
C=C(C)CNc1ccc(C(C)C(=O)O)cc1 (stereo unspecified) [ALMINOPROFEN],> 30,–,–,–,–,–
C[C@H]1CN(C[C@H](Cc2ccccc2)C(=O)NCC(=O)O)CC[C@@]1(C)c1cccc(O)c1 [ALVIMOPAN],> 30,–,–,–,–,–
CC(C(=O)O)c1ccc2oc(-c3ccc(Cl)cc3)nc2c1 (stereo unspecified) [BENOXAPROFEN],–,> 30,> 30,> 30,> 30,> 10
O=C(O)c1ccccc1 [BENZOIC ACID],> 30,–,–,–,–,–
CC1(C)S[C@@H]2[C@H](NC(=O)C(C(=O)O)c3ccccc3)C(=O)N2[C@H]1C(=O)O (stereo partly specified) [CARBENICILLIN],–,> 30,> 30,> 30,> 30,> 30
Cc1nnc(SCC2=C(C(=O)O)N3C(=O)[C@@H](NC(=O)Cn4cnnn4)[C@H]3SC2)s1 [CEFAZOLIN],–,> 300,> 300,> 300,> 300,> 30
CC=CC1=C(C(=O)O)N2C(=O)[C@@H](NC(=O)[C@H](N)c3ccc(O)cc3)[C@H]2SC1 [CEFPROZIL],–,> 30,> 30,> 30,> 30,> 30
CC(C)(O/N=C(\C(=O)N[C@@H]1C(=O)N2C(C(=O)[O-])=C(C[n+]3ccccc3)CS[C@H]12)c1csc(N)n1)C(=O)O [CEFTAZIDIME],–,> 300,> 300,> 300,> 300,> 30
CCCNC(=O)NS(=O)(=O)c1ccc(Cl)cc1 [CHLORPROPAMIDE],–,> 30,> 10,> 30,> 30,> 30
Cc1cc(C2CCCCC2)n(O)c(=O)c1 [CICLOPIROX],–,> 30,> 30,–,–,–
Clc1ccc(Cn2c(CN3CCCC3)nc3ccccc32)cc1 [CLEMIZOLE],–,> 30,> 30,> 30,> 30,–
CCC(=O)O[C@]1(C(=O)CCl)[C@@H](C)C[C@H]2[C@@H]3CCC4=CC(=O)C=C[C@]4(C)[C@@]3(F)[C@@H](O)C[C@@]21C [CLOBETASOL PROPIONATE],–,> 30,> 30,> 30,> 30,> 30
C[C@H]1O[C@@H](O[C@H]2CC[C@@]3(C)[C@H](CC[C@@H]4[C@@H]3C[C@@H](O)[C@]3(C)[C@@H](C5=CC(=O)OC5)CC[C@]43O)C2)C[C@H](O)[C@@H]1O[C@H]1C[C@H](O)[C@H](O[C@H]2C[C@H](O)[C@H](O[C@@H]3O[C@H](CO)[C@@H](O)[C@H](O)[C@H]3O)[C@@H](C)O2)[C@@H](C)O1 [DESLANOSIDE],> 30,–,–,–,–,–
CC(C)Cc1ccc([C@H](C)C(=O)O)cc1 [DEXIBUPROFEN],–,> 30,> 30,> 30,> 30,–
CCCCc1oc2ccc(NS(C)(=O)=O)cc2c1C(=O)c1ccc(OCCCN(CCCC)CCCC)cc1 [DRONEDARONE],5.92,–,–,–,–,–
CNC[C@H](O)c1ccc(O)c(O)c1 [EPINEPHRINE],–,> 30,–,> 30,> 30,–
CC(C(=O)O)c1cccc(Oc2ccccc2)c1 (stereo unspecified) [FENOPROFEN],> 30,–,–,–,–,–
CC(C)C(=O)Oc1ccc(CO)cc1[C@H](CCN(C(C)C)C(C)C)c1ccccc1 [FESOTERODINE],> 30,–,–,–,–,–
Cc1onc(-c2c(F)cccc2Cl)c1C(=O)N[C@@H]1C(=O)N2[C@@H]1SC(C)(C)[C@@H]2C(=O)O [FLOXACILLIN],–,> 30,> 30,> 30,> 30,–

SMILES,AC50 [1] [µM],AC50 (Adenosine receptor A2a) [µM],AC50 [2] [µM],AC50 [3] [µM],AC50 [4] [µM],AC50 [5] [µM]
CC1(C)O[C@@H]2C[C@H]3[C@@H]4C[C@H](F)C5=CC(=O)C=C[C@]5(C)[C@@]4(F)[C@@H](O)C[C@]3(C)[C@]2(C(=O)CO)O1 [FLUOCINOLONE ACETONIDE],> 30,–,–,–,–,–
O=C(O)P(=O)(O)O [FOSCARNET],> 30,–,–,–,–,–
CCCCC(CC)CN1CN(CC(CC)CCCC)CC(C)(N)C1 (stereo unspecified) [HEXETIDINE],> 30,–,–,–,–,–
Cc1cc(=O)oc2cc(O)ccc12 [HYMECROMONE],> 30,–,–,–,–,–
CCCCCCCN(CC)CCCC(O)c1ccc(NS(C)(=O)=O)cc1 (stereo unspecified) [IBUTILIDE],–,> 30,> 30,> 30,> 30,> 30
COc1c2occc2c(OC)c2c(=O)cc(C)oc12 [KHELLIN],> 30,–,–,–,–,–
CC(C)[C@@H]1CC[C@@H](C)C[C@H]1O [LEVOMENTHOL],> 30,–,–,–,–,–
COC(=O)[C@@H](N)Cc1ccc(O)c(O)c1 [MELEVODOPA],> 30,–,–,–,–,–
C[N+]1(C)CCCC(OC(=O)C(O)(c2ccccc2)c2ccccc2)C1 (stereo unspecified) [MEPENZOLATE],> 30,–,–,–,–,–
C=N[C@@H](C(=O)N[C@@H]1C(=O)N2[C@@H]1SC(C)(C)[C@@H]2C(=O)O)c1ccccc1 [METAMPICILLIN],> 30,–,–,–,–,–
O=C(NNCS(=O)(=O)O)c1ccncc1 [METHANIAZIDE],> 30,–,–,–,–,–
Cc1cc(=O)[nH]c(=S)[nH]1 [METHYLTHIOURACIL],> 30,–,–,–,–,–
CN(C)c1ccc(O)c2c1C[C@H]1C[C@H]3[C@H](N(C)C)C(O)=C(C(N)=O)C(=O)[C@@]3(O)C(O)=C1C2=O [MINOCYCLINE],> 30,–,–,–,–,–
CCNC(=O)/C=C(C)/C=C/C=C(C)/C=C/c1c(C)cc(OC)c(C)c1C [MOTRETINIDE],> 30,–,–,–,–,–
CNC(=C[N+](=O)[O-])NCCSCc1csc(CN(C)C)n1 [NIZATIDINE],–,> 10,> 10,> 10,> 10,–
CN1Cc2c(N)cccc2C(c2ccccc2)C1 (stereo unspecified) [NOMIFENSINE],–,> 30,–,> 30,> 30,> 30
C=CC(=O)Nc1cccc(Oc2nc(Nc3ccc(N4CCN(C)CC4)cc3)nc3ccsc23)c1 [OLMUTINIB],4.91,–,–,–,–,–
COc1ccc2[nH]c([S+]([O-])Cc3ncc(C)c(OC)c3C)nc2c1 (stereo unspecified) [OMEPRAZOLE],> 30,–,–,–,–,–
CCCCC1C(=O)N(c2ccccc2)N(c2ccc(O)cc2)C1=O (stereo unspecified) [OXYPHENBUTAZONE ANHYDROUS],> 30,–,–,–,–,–
CCCc1cc(=O)[nH]c(=S)[nH]1 [PROPYLTHIOURACIL],–,> 10,> 10,> 10,> 10,–
Cn1cc(C(=O)[C@@H]2CCc3nc[nH]c3C2)c2ccccc21 [RAMOSETRON],–,> 30,> 30,> 30,> 30,> 30
S=P(N1CC1)(N1CC1)N1CC1 [THIOTEPA],–,> 30,> 30,> 30,> 30,–
COc1cc(C(=O)NS(=O)(=O)c2ccccc2C)ccc1Cc1cn(C)c2ccc(NC(=O)OC3CCCC3)cc12 [ZAFIRLUKAST],–,> 30,> 10,> 10,> 10,–
